Test [1] concerns the target Fibroblast growth factor receptor 3 (Homo sapiens, UniProt P22607). Description: Kinase Assay: For the assay, 50 nl of each stock solution of the test compound in DMSO was pipetted into a black, low-volume 384-well microtiter plate (Greiner Bio-One, Frickenhausen, Germany) 2 ul of a solution of the above FGFR-3 fusion protein in aqueous assay buffer [8 mM MOPS pH 7.0, 10 mM magnesium acetate, 1.0 mM dithiothreitol, 0.05% (w/v) bovine serum albumin (BSA), 0.07% (v/v) Tween-20 ….

For test [2], the target named is Fibroblast growth factor receptor 1 (Homo sapiens, UniProt P11362). The experiment in a line: High ATP Kinase Assay: For the assay, 50 nl of each stock solution of the test compound in DMSO was pipetted into a black, low-volume 384-well microtiter plate (Greiner Bio-One, Frickenhausen, Germany) 2 Î¼l of a solution of the above FGFR-1 fusion protein in aqueous assay buffer [8 mM MOPS pH 7.0, 10 mM magnesium acetate, 1.0 mM dithiothreitol, 0.05% (w/v) bovine serum albumin (BSA), 0.07% (v/v) ….
Chain of Fibroblast growth factor receptor 1 (P11362 whole entry, the tested form may be a part): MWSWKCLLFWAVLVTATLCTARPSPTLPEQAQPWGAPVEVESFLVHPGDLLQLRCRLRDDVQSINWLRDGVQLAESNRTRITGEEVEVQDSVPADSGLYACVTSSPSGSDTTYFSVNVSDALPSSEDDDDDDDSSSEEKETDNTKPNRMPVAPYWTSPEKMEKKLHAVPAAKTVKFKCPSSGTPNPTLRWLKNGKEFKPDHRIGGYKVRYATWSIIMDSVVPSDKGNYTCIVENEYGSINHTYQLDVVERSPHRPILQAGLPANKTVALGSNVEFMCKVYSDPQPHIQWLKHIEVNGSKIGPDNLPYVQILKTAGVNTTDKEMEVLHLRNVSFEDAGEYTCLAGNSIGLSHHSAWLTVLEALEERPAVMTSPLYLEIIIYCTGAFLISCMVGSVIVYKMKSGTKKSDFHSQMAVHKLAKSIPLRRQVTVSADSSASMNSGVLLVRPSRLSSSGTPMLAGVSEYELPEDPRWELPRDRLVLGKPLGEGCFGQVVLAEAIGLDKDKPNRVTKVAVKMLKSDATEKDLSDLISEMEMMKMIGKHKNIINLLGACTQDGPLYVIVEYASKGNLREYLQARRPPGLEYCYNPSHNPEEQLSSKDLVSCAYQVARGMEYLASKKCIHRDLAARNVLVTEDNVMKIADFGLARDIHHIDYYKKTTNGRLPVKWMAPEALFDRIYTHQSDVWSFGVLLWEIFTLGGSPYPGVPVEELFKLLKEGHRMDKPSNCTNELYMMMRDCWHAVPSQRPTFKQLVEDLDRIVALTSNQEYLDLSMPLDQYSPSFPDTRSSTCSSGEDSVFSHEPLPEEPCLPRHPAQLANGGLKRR

Chain of Fibroblast growth factor receptor 3 (P22607 whole entry, the tested form may be a part): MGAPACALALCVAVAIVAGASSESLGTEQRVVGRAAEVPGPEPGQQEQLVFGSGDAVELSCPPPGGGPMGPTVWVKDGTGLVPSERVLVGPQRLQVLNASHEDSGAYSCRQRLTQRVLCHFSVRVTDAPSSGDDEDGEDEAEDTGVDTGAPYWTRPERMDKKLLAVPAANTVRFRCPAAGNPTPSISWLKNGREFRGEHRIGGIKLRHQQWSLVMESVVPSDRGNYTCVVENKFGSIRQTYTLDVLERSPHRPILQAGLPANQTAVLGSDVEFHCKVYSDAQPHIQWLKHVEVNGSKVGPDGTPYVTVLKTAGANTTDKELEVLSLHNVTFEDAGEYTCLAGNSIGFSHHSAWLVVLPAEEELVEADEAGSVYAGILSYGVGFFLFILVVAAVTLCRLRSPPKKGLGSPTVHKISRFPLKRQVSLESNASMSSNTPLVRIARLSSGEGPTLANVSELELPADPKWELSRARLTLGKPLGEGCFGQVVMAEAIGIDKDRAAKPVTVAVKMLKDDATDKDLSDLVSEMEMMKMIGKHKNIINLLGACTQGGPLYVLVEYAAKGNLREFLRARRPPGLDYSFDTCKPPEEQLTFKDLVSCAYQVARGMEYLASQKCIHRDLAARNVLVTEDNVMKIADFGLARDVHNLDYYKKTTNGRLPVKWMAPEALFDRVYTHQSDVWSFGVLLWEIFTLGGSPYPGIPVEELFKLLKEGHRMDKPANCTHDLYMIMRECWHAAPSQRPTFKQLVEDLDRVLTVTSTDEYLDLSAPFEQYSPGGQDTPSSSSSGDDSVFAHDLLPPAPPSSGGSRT

Consider `COCc1c(-c2cc3cc(C)cc(OC)c3s2)c2c(N)ncnn2c1C#N`, for which the IC50 (usually the concentration at which inhibition is half-maximal) came to 58.1 nM in test [1] and 55.3 nM in test [2]. In test [2], `COCc1c(CN2CCNC(=O)C2)c(-c2cc3cc(C)cc(OC)c3s2)c2c(N)ncnn12` displayed an IC50 of 3.9 nM. For the molecule `COc1cc(C)cc2cc(-c3c(CNC(C)=O)c(CNC(C)=O)n4ncnc(N)c34)sc12`, the IC50 in test [1] was found to be 0.7 nM; in test [2], 1.4 nM. In turn, `CCOCc1c(-c2cc3cc(C)cc(OC)c3s2)c2c(N)ncnn2c1C#N` gave an IC50 in test [2] of 39.1 nM. On to `CCOCc1c(CN2CCNC(=O)C2)c(-c2cc3cc(C)cc(OC)c3s2)c2c(N)ncnn12`, for which the midpoint of inhibition in test [2], the IC50, lay at 8 nM.

The values above are taken from ChEMBL document CHEMBL3886401, “Disubstituted benzothienyl-pyrrolotriazines and uses thereof” (2015).
